The target of data set [1] is human angiogenin, wild type (Homo sapiens, UniProt P03950). The following applies: 30 mM Mes, 30 mM NaCl, pH 6.0 at 37° C.; cited from earlier work.
In data set [2] the target is T1, bovine pancreatic RNase A (Bos taurus, UniProt P61823).
T1 sequence (P61823 27-150): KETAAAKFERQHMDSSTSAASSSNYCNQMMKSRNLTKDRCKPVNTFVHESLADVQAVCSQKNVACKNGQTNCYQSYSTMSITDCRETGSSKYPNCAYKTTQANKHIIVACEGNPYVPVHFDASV
The following applies: spectrophotometric assay, 30 mM Mes, 30 mM NaCl, pH 6.0 at 25° C.; cited from earlier work.

Substrate in data set [3]: Nc1ccn([C@@H]2O[C@H](CO)[C@@H](OP(=O)(O)OC[C@H]3O[C@@H](n4cnc5c(N)ncnc54)[C@H](O)[C@@H]3O)[C@H]2O)c(=O)n1
In words: Activity toward dinucleotide (3',5') phosphates, HPLC quantitation method. The following applies: other: ARH-III, 30 mM Mes, 30 mM NaCl, pH 6.0 at 37° C., 0.1 mM substrate, 2.8 μM ARH-III. The class given is biochemical, human. As to the method: (§1) Activity toward dinucleotide (3', 5') phosphates was determined by an HPLC quantitation method as described by Shapiro et al., 1988, Anal. Biochem. 175: 450-461; Harper and Vallee, 1989, Biochemistry 28: 1875-1884. Reaction mixtures (30 μL) contained 0.1 mM substrate, 2.8 μM ARH-III and were incubated for 4-24 hours at 37° C.
(§2) The enzymatic activities of ARH-III toward tRNA, 18S and 28S rRNA, and dinucleotide substrates were very similar to those of angiogenin. […] Angiogenin and RNase A (obtained from Cooper Biochemicals) had maximal activities under these assay conditions at pH ~6.8 and ~8.1, respectively, consistent with previous results obtained by Lee & Vallee, 1989b, Biochem. and Biophys. Res. Commun. 161: 121-126. It is known that angiogenin catalyzes the cleavage of dinucleotide substrates, but at rates 5-6 orders of magnitude lower than those observed for RNase A (Shapiro et al., 1988, Anal. Biochem. 175: 450-461; Harper & Vallee, 1989, Biochemistry 28: 1875-1884). Its specificity is different from that of RNase A based on kcat /Km values for 4 different dinucleotides. In all cases, kcat /Km values were within 30% of those observed for angiogenin, and the relative specificity for the substrates was unchanged.
(§3) ^a Assays with ARHIII and angiogenin were performed in 30 mM Mes, 30
(§4) mM NaCl, pH 6.0 at 37° C.

Substrate in data set [4]: Nc1nc2c(ncn2[C@@H]2O[C@H](COP(=O)(O)O[C@H]3[C@@H](O)[C@H](n4ccc(=O)[nH]c4=O)O[C@@H]3CO)[C@@H](O)[C@H]2O)c(=O)[nH]1
The data set is described as above. The class given is biochemical, human. The following applies: other: ARH-III, 30 mM Mes, 30 mM NaCl, pH 6.0 at 37° C., 0.1 mM substrate, 2.8 μM ARH-III. As to the method:
as §1, §2, §3, §4

Substrate in data set [5]: Nc1ncnc2c1ncn2[C@@H]1O[C@H](COP(=O)(O)O[C@H]2[C@@H](O)[C@H](n3ccc(=O)[nH]c3=O)O[C@@H]2CO)[C@@H](O)[C@H]1O
The data set is described as above. Particulars: other: ARH-III, 30 mM Mes, 30 mM NaCl, pH 6.0 at 37° C., 0.1 mM substrate, 2.8 μM ARH-III. It counts as biochemical, human. How it is done:
as §1, §2, §3, §4

Substrate in data set [6]: Nc1ccn([C@@H]2O[C@H](CO)[C@@H](OP(=O)(O)OC[C@H]3O[C@@H](n4cnc5c(=O)[nH]c(N)nc54)[C@H](O)[C@@H]3O)[C@H]2O)c(=O)n1
The data set is described as above. It counts as biochemical, human. The following applies: other: ARH-III, 30 mM Mes, 30 mM NaCl, pH 6.0 at 37° C., 0.1 mM substrate, 2.8 μM ARH-III. How it is done:
as §1, §2, §3, §4

Sequence of human angiogenin, wild type (P03950 25-147): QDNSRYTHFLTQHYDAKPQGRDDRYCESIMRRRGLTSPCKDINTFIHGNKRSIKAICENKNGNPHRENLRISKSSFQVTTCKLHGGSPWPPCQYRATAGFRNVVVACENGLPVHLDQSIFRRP

For `Nc1ccn([C@@H]2O[C@H](CO)[C@@H](OP(=O)(O)OC[C@H]3O[C@@H](n4cnc5c(N)ncnc54)[C@H](O)[C@@H]3O)[C@H]2O)c(=O)n1` [CpA, cytidylyl-(3'-5') adenosine], the kcat/Km in data set [1] was 12 M⁻¹ s⁻¹; in data set [2], 6e+06 M⁻¹ s⁻¹.

In the case of `Nc1nc2c(ncn2[C@@H]2O[C@H](COP(=O)(O)O[C@H]3[C@@H](O)[C@H](n4ccc(=O)[nH]c4=O)O[C@@H]3CO)[C@@H](O)[C@H]2O)c(=O)[nH]1` [UpG, uridylyl-(3'-5') guanosine], the kcat/Km was 0.4 M⁻¹ s⁻¹ in data set [1] and 180000 M⁻¹ s⁻¹ in data set [2].

Consider `Nc1ccn([C@@H]2O[C@H](CO)[C@@H](OP(=O)(O)OC[C@H]3O[C@@H](n4cnc5c(=O)[nH]c(N)nc54)[C@H](O)[C@@H]3O)[C@H]2O)c(=O)n1` [CpG, cytidylyl-(3'-5') guanosine], for which the kcat/Km in data set [1] is 4.0 M⁻¹ s⁻¹; in data set [2], 510000 M⁻¹ s⁻¹.

Take `Nc1ncnc2c1ncn2[C@@H]1O[C@H](COP(=O)(O)O[C@H]2[C@@H](O)[C@H](n3ccc(=O)[nH]c3=O)O[C@@H]2CO)[C@@H](O)[C@H]1O` [UpA, uridylyl-(3'-5') adenosine]: the kcat/Km in data set [1] is 1.1 M⁻¹ s⁻¹; in data set [2], 4e+06 M⁻¹ s⁻¹.

B1: ARH-III, angiogenin/RNase hybrid: human angiogenin with residues 8-22 replaced by residues 7-21 of bovine pancreatic RNase A (Homo sapiens) (protein)
chain: QDNSRYTKFERQHMDSSTSAASDRYCESIMRRRGLTSPCKDINTFIHGNKRSIKAICENKNGNPHRENLRISKSSFQVTTCKLHGGSPWPPCQYRATAGFRNVVVACENGLPVHLDQSIFRRP
notes: the coding region for Met-(-1) through Asn-3; fragment C consisted of the coding region from Arg-24 through Pro-123; made in house; host or cells: E. coli W3110 (plasmid pARH-III)
In the case of B1, the kcat/Km in data set [3] was 13 M⁻¹ s⁻¹; in data set [4], 0.4 M⁻¹ s⁻¹; in data set [5] it was 0.8 M⁻¹ s⁻¹; in data set [6] it was 3.4 M⁻¹ s⁻¹.

In general, kcat/Km refers to the second-order rate constant that governs catalysis at low substrate concentration.

The values are drawn from patent publication US5270204A, “Covalent angiogenin/RNase hybrids” (The President and Fellows of Harvard College, priority 1992, dated 1993).
